Columns and labels:
KGN [1] = test: Induction of estrogen biosynthesis in human KGN cells assessed as upregulation of E2 concentration preincubated for 24 hrs followed by testosterone addition for 24 hrs by magnetic particle based ELISA; type: functional, cell-based
KGN [2] = test: Induction of estrogen biosynthesis in human KGN cells assessed as upregulation of E2 concentration at 25 uM preincubated for 24 hrs followed by testosterone addition for 24 hrs by magnetic particle based ELISA; type: functional
KGN [3] = test: Upregulation of aromatase expression in human KGN cells at 10 to 50 uM after 24 hrs by Western blot analysis; type: functional

EC50 (KGN [1]) [µM]	SMILES	Activity (KGN [1])	fold change (FC) (KGN [2])	fold change (FC) (KGN [3])
8	CC(=O)CC[C@@]1(C)[C@H](C)CC[C@@]2(C)C(CO)=CCC[C@H]12	Dose-dependent effect	2	1.5
11.1	COc1cc(/C=C/C(=O)OC[C@H]2O[C@@H](O[C@@H]3OC=C[C@@]4(O)[C@H](O)C[C@](C)(OC(C)=O)[C@@H]34)[C@H](O)[C@@H](O)[C@@H]2O)cc(OC)c1O	Dose-dependent effect	2	1.5
